# US20040126385A1, “Methods and compositions for screening, diagnosing, or treating NF-kappaB related disease” (priority 2001, published 2004)
# Experiments:
# [1] = Physical condition and lethality of treated mice; type: in vivo
# Experimental: (§1) FIG. 2. Regression of tumors by Go6976. (A) CSMLO cells were implanted on day 0 (indicated by the arrow) as for FIG. 1. Go6976 was administered on day 21 (indicated by the arrow), locally under the tumors of the five animals with comparatively larger tumors (▪). Another five animals received the same volume of 0.1% DMSO (♦) on the same day, and the control group of five animals received nothing (□). (B) One representative of five animals from each group. Animals 1 and 2 are DMSO- and Go6976-treated non-tumor-bearing animals, respectively. Animal 3 is tumor-bearing and without treatment. Animals 4 and 5 represent tumor-bearing groups treated with DMSO and Go6976, respectively. Animal 6 is an A-J mouse that received nothing.
# (§2) Animal model. The tumorigenic potential of CSMLO and dnIkkβ-expressing stable transfectants was examined in female A-J mice 2-3 weeks old. For each mouse, 1.0 s×10^6 cells were implanted under the dorsal skin. Palpable tumors were consistently detected within 10-15 days following implantation of the cells. Body weight and tumor volumes (32) were monitored weekly. Go6976 (0.5 ml of 0.05 mM stock solution in 0.1% DMSO) was administered to each animal locally two times a week. The control group received the same volume of the solvent (0.5 ml of 0.1%).
# ccD1 = test: Level of ccD1 by Western blot analysis; type: cell-based, mouse; settings: CSMLO cells transfected with dnIkkβ
# From the text: FIG. 5. Inhibition of NF-κB activation and down stream events by stable expression of dominant-negative IκB-kinase β (dnIkkβ). (A Upper) dnIkkβ-Expressing transfectant cells by light microscopy (i), 4′,6-diamidino-2-phenylindole (DAPI)-stained nuclei (ii), and immunofluorescence with anti-FLAG antibody in the presence of the secondary antibody (iii). The positive signals show dnIkkβ-conjugated FLAG protein in the cytoplasm. (Lower) Processed vector-control plasmid-transfected CSMLO cells in which no FLAG protein could be detected (vi). (B Upper) Active NF-κB was determined by its [γ-^32P]DNA binding activity by EMSA, in three dnIkkβ-expressing stable transfectants (dnIkkβ1-1, dnIkkβ1-3, and dnIkkβ1-5) and (Lower) in parent CSMLO cells and vector control plasmid expressing transfectant (vect1-5). (C Upper) The level of ccD1 in the same three-dnIkkβ-expressing CSMLO and vector control transfected cells, as measured by Western blot analysis. (Lower) Actin analyzed similarly by immunodetection with anti-β-actin antibody that serves as a loading control.
# CSMLO cells = test: Growth of CSMLO cells under culture conditions; type: cell-based, mouse; settings: short-term drug treatment with 10 μM Go6976
# Experimental: Materials. Mouse mammary adenocarcinoma cells in culture (CSMLO) were grown in complete medium supplemented with 10% FBS and growth factors as described (7, 11, 12). Anti-human ER antibody (SC543), anti-mouse ccD1 antibody, anti-p50, and anti-p65 antibodies for the NF-κB subunits were obtained from Santa Cruz Biotechnology. Rabbit polyclonal IgG raised against the conserved region of actin and anti-Flag (M2) monoclonal antibody were obtained from Sigma-Aldrich. The fluorescein-conjugated goat anti-mouse IgG was from Oncogene Science. Complementary strands of the oligonucleotide (5′-[…]-3′) containing the NF-κB motif (bold faced) were custom synthesized by Integrated DNA Technologies (Coralville, Iowa). The double-stranded NF-κB-oligonucleotide was end-labeled with [γ-^32P]ATP (NEN) and T4 kinase (New England Biolabs) as described (7), and was used for electrophoretic mobility shift assay (EMSA). Hydrocortisone, insulin, DTT, dimethyl sulfoxide (DMSO), and phenylmethylsulfonyl fluoride were obtained from Sigma. Hybond nitrocellulose membrane and ECL (enhanced chemiluminescence) immunodetection kits were obtained from Amersham Pharmacia. Go6976, a nonglyosidic indolcarbazole, and an inhibitor of protein kinase C alpha and beta was purchased from Calbiochem-Novabiochem (28, 29).
# CSMLO-induced tumors = test: Tumor growth in mouse tumor model (CSMLO cells implanted in female A-J mice); type: in vivo
# Experimental: FIG. 1. Inhibition of growth of tumors by Go6976. Tumors were generated in female A-J mice by implantation of CSMLO cells (10^6) on day 0 (indicated by the arrow). Go6976 (0.5 ml of 0.05 mM solution in 0.1% DMSO) was administered 48 h later to a group of five animals, twice a week locally at the site of implantation of cells (♦). Control group (five animals) received 0.5 ml of 0.1% DMSO similarly (□). Growth of tumors was monitored by measurements of tumor volume at regular intervals (32).
# as §1
# Animal model. […] Palpable tumors were consistently detected within 10-15 days following implantation of the cells. Body weight and tumor volumes (32) were monitored weekly. […]
# NF-κB = test: Level of active NF-κB in nuclear extracts by EMSA; type: cell-based, mouse; settings: CSMLO cells
# Experimental: FIG. 3. Active NF-κB complex in CSMLO cells: Stimulation by PMA and inhibition by Go6976. (A) Nuclear extracts (5 μg protein) from control and PMA-treated (20 ng/ml for 18 h) CSMLO cells were incubated in a standard EMSA reaction mixture containing [γ-^32P]-labeled double-stranded oligonucleotide plus Go6976 at the indicated μM concentrations for […] and subjected to nondenaturing PAGE (7, 31). The autoradiographic signals of the retarded NF-κB-[^32 P]DNA complex is indicated by the upper arrow and the free [γ-^32P]-labeled probe by the lower arrow. (B) The NF-κB-[^32P]DNA complex was characterized by supershift assay with anti-p50 (lanes 3 and 4) or p65 (B, lanes 5 and 6) antibodies. Nuclear extracts were incubated with specific antibodies for 15 min at room temperature, followed by incubation for an additional 30 min in the presence of [γ-^32p] double-stranded NF-κB oligonucleotide, and subjected to EMSA as described (7, 31). The supershifted complexes are indicated by the upper arrow.
# Methods. Measurements of the level of active NF-κB by EMSA. The level of active NF-κB in the nuclear extracts of control and treated cells was determined by its DNA binding activity by EMSA as described 7, 30, 31). The [^32P]DNA-protein complex was identified as a retarded radioactive band in EMSA detected by autoradiography. […]
# [2] = test system: tumor, liver, and lung tissues; test: Histology (H&E) of tumor, liver and lung tissues of tumor-bearing animals; type: in vivo, mouse
# From the text: FIG. 4. Histology of tissues from untreated and Go6976-treated tumor-bearing animals. Tumor growth and treatment conditions are the same as described for FIG. 1. Tumor, liver, and lung tissues from untreated and treated tumor bearing animals were dissected 11 days after the initiation of treatment and 32 days after implantation of the cells. Tissues were processed for hematoxylin/eosin (H&E) staining, examined under a light microscope, and photographed at the indicated magnifications. Arrows show mitotic cells in untreated tumor tissue. Residual tumor (T) and necrotic cells (N) of the treated tumor are shown. Stars in the treated block indicate pycnotic cells with apparent fragmentation and clumping of nuclear DNA.
# as §2
smiles,measurement,setting,value
Cn1c2ccccc2c2c3c(c4c5ccccc5n(CCC#N)c4c21)CNC3=O [Go6976],physical defects as judged by body weight and agility,[1]; mice without tumor treated with Go6976,did not show any apparent physical defects
same,mouse lethality,"[1]; mouse, in vivo",without mouse lethality
same,transactivation of ccD1,ccD1,blocked transactivation of ccD1
same,growth of cells under culture conditions,CSMLO cells,not affected
same,tumor growth (tumor volume),"CSMLO-induced tumors; Go6976 0.5 ml of 0.05 mM in 0.1% DMSO, local, twice a week, started within 48 h of implantation of CSMLO cells, vs DMSO-treated group",substantial inhibition of tumor growth
same,regression of full-grown tumors (tumor volume),"CSMLO-induced tumors; Go6976 administered locally 21 days after implantation of CSMLO cells, all of five animals",regressed sharply
same,basal level of NF-κB,NF-κB,did not affect the basal level of NF-κB
same,PMA-induced elevation of NF-κB activation,"NF-κB; PMA 20 ng/ml, simultaneous treatment with Go6976 for 48 h",inhibited in a concentration-dependent manner
same,histological changes in tumor tissue,"[2]; Go6976-treated tumor-bearing animals, 11 days after initiation of treatment",extensive necrosis
same,pycnotic cells in residual tumor tissue (suggestive of DNA fragmentation and apoptosis),"[2]; treated animal, magnification 100×",a large number of pycnotic cells with nuclear clumping
same,pathological changes in liver and lung tissue,"[2]; tumor-bearing or non-tumor-bearing animals, localized Go6976 treatment",did not show any microscopically detectable pathological changes
